Measured values taken from publication PMC4505863 (ACS Chemical Neuroscience, 2014).

Legend:
5-HT1A = biological target: T1, 5-HT1A (Homo sapiens, UniProt P08908); assay: PDSP screening affinity 5-HT1A; assay type: binding
T1 sequence (P08908 1-422): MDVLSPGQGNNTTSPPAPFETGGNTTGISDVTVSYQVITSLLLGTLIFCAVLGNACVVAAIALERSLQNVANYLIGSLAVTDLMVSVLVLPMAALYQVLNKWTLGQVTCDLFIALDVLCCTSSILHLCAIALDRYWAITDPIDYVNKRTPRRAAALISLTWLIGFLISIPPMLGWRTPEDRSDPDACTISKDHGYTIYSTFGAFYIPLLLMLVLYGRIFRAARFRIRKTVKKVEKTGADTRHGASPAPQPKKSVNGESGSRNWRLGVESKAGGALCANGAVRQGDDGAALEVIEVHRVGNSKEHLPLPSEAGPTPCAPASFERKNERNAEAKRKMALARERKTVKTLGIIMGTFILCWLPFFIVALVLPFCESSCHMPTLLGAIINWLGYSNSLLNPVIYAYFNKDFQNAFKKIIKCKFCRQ

r5-HT2A = r5-HT2A (Rattus norvegicus, UniProt P14842); assay: Ca2+ mobilization assay; assay type: cell-based; conditions: for EC50: r5-HT2A EC50, Ca2+ mobilization; for Emax: read-out: r5-HT2A Emax, percentage of the maximum response to 5-HT
5-HT2A receptor [1] = biological target: T2, 5-HT2A receptor (Homo sapiens, UniProt P28223); assay: h5-HT2A affinity, agonist radioligand [125I]DOI; assay type: binding
human 5-HT2C receptor [2] = biological target: T3, human 5-HT2C receptor (Homo sapiens, UniProt P28335); assay: h5-HT2C affinity, antagonist radioligand [3H]mesulergine; assay type: binding
T3 sequence (P28335 33-458): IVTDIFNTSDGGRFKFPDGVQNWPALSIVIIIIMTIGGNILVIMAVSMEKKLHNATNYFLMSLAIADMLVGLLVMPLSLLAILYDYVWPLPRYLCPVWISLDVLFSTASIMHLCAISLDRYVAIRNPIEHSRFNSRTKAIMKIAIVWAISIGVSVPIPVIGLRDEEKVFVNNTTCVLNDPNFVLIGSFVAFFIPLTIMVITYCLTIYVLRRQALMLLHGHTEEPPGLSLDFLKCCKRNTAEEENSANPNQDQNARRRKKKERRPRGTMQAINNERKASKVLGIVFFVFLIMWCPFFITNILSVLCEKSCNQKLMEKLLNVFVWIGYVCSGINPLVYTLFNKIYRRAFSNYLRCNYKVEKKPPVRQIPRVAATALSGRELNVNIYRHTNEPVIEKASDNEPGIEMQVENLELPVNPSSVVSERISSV

5-HT7 = 5-HT7 (Homo sapiens, UniProt P34969); assay: PDSP screening affinity 5-HT7; assay type: binding; conditions: 5-HT7 affinity
5-HT6 = 5-HT6 (Homo sapiens, UniProt P50406); assay: PDSP screening affinity 5-HT6; assay type: binding; conditions: 5-HT6 affinity
r5-HT2C = biological target: T4, r5-HT2C (Rattus norvegicus, UniProt P08909); assay: Ca2+ mobilization assay; assay type: cell-based; conditions: for Emax: read-out: r5-HT2C Emax
T4 sequence (P08909 33-460): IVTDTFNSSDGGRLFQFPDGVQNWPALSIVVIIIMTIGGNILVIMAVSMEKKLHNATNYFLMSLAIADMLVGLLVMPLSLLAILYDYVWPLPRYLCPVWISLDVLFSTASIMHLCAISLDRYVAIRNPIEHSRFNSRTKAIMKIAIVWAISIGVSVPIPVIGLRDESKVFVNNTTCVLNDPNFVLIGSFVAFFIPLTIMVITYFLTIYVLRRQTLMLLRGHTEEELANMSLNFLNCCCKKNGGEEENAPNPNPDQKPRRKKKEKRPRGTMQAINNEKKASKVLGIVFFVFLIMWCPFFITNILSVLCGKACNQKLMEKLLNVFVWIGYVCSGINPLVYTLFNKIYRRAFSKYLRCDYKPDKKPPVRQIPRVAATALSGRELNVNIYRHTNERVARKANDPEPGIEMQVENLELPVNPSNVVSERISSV

5-HT1D = 5-HT1D (Homo sapiens, UniProt P28221); assay: PDSP screening affinity 5-HT1D; assay type: binding
5-ht1e = 5-ht1e (Homo sapiens, UniProt P28566); assay: PDSP screening affinity 5-ht1e; assay type: binding
h5-HT2B = h5-HT2B (Homo sapiens, UniProt P41595); assay: Ca2+ mobilization assay; assay type: cell-based; conditions: for Emax: HEK293, read-out: h5-HT2B Emax
h5-HT2C = biological target: T5, h5-HT2C (Homo sapiens, UniProt P28335); assay: Ca2+ mobilization assay; assay type: cell-based; conditions: for Emax: HEK293, read-out: h5HT2C Emax; for EC50: h5HT2C EC50, Ca2+ mobilization
T5 sequence (P28335 33-458): T3 sequence (P28335 33-458)

5-ht5a = 5-ht5a (Homo sapiens, UniProt P47898); assay: PDSP screening affinity 5-ht5a; assay type: binding; conditions: 5-ht5a affinity
Male C57BL/6J mice = assay: Mouse head twitch response; conditions: for max counts: HTR counts; for ED50: Mus musculus, sc, read-out: ED50 mg/kg (95% CI), mouse head twitch; for activity in the HTR assay (active / inactive): doses up to 30 mg/kg
5-HT1B = 5-HT1B (Homo sapiens, UniProt P28222); assay: PDSP screening affinity 5-HT1B; assay type: binding; conditions: 5-HT1B affinity
h5-HT2A = h5-HT2A (Homo sapiens, UniProt P28223); assay: Ca2+ mobilization assay; assay type: cell-based; conditions: for Emax: HEK293, read-out: h5-HT2A Emax, percentage of the maximum response to 5-HT
5-HT2A receptor [3] = biological target: T2, 5-HT2A receptor; assay: h5-HT2A affinity, antagonist radioligand [3H]ketanserin; assay type: binding
human 5-HT2C receptor [4] = biological target: T3, human 5-HT2C receptor; assay: h5-HT2C affinity, agonist radioligand [125I]DOI; assay type: binding
5-HT2B = 5-HT2B (Homo sapiens, UniProt P41595); assay: PDSP screening affinity 5-HT2B; assay type: binding; conditions: 5-HT2B affinity
5-HT3 = biological target: T6, 5-HT3 (Homo sapiens, UniProt P46098); assay: PDSP screening affinity 5-HT3; assay type: binding
T6 sequence (P46098 24-478): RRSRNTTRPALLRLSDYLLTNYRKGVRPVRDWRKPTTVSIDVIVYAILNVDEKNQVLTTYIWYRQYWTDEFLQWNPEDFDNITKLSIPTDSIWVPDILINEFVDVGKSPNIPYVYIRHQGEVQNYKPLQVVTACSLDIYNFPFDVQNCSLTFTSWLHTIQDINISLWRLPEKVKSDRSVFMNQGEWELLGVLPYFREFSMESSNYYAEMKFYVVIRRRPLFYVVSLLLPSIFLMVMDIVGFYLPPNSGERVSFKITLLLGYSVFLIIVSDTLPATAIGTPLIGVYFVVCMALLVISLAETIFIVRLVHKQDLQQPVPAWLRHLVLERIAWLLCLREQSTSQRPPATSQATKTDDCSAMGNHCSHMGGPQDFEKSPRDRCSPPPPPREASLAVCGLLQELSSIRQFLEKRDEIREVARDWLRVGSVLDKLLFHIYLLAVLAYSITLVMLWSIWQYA

[5] = r5-HT2C EC50, Ca2+ mobilization
[6] = h5-HT2B EC50, Ca2+ mobilization

Chain of h5-HT2B (P41595 whole entry): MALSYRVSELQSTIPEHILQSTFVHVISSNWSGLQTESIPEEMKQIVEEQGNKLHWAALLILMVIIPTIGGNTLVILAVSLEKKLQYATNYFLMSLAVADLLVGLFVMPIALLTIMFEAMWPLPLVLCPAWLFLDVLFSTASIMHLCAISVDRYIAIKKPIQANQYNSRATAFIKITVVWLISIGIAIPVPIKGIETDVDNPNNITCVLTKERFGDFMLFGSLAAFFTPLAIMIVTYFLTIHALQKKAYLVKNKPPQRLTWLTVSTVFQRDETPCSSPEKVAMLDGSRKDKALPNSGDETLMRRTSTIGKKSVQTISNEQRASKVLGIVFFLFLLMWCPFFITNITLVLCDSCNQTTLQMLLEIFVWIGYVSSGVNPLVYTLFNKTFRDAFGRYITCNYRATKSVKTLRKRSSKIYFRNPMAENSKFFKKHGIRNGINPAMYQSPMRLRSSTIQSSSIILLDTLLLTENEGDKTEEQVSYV
Chain of r5-HT2A (P14842 whole entry): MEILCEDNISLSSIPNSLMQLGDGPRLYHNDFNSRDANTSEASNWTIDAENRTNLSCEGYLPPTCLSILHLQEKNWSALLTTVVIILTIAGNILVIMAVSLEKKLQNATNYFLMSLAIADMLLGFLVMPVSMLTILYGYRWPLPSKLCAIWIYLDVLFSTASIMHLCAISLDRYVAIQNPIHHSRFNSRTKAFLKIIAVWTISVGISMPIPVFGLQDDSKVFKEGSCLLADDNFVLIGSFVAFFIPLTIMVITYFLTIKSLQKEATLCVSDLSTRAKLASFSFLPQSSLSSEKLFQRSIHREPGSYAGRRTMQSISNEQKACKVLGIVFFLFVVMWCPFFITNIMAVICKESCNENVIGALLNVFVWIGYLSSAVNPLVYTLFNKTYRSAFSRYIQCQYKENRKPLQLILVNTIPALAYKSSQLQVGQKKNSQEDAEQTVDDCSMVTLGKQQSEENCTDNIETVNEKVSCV
Chain of h5-HT2A (P28223 whole entry): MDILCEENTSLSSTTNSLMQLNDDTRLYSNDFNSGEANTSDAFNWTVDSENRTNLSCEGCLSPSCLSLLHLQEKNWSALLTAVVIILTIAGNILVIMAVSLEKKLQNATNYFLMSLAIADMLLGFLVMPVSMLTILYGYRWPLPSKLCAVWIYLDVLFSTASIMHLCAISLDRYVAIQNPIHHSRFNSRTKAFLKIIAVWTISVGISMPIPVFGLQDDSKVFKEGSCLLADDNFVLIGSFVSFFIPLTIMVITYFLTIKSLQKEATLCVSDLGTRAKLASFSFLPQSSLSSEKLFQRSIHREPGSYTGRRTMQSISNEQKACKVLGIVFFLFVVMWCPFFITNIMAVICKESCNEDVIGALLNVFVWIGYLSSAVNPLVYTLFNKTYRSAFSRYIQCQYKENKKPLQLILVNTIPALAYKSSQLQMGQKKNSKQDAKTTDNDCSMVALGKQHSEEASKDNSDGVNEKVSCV
T2 sequence (P28223 whole entry): as above
Chain of 5-HT1B (P28222 whole entry): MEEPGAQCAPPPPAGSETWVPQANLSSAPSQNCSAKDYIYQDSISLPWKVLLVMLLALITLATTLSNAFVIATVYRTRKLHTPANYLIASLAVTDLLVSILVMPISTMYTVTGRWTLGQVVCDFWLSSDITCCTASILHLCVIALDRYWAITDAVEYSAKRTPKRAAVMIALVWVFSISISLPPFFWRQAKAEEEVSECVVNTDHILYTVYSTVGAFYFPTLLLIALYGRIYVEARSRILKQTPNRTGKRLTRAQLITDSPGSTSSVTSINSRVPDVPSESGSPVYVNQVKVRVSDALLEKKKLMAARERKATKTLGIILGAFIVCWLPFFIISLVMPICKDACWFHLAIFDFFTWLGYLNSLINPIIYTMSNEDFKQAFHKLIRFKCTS
Chain of 5-HT2B (P41595 whole entry): as the sequence (P41595 whole entry) above
Chain of 5-HT1D (P28221 whole entry): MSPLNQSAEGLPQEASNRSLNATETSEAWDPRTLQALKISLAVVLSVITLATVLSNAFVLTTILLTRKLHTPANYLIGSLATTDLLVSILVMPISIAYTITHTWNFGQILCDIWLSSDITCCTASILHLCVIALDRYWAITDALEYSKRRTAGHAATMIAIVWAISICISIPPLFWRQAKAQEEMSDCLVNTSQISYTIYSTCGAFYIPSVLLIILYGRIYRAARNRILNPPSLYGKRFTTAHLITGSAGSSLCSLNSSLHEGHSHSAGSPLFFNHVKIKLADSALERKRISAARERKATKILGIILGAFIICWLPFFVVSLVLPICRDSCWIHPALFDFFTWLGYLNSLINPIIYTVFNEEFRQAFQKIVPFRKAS
Chain of 5-HT7 (P34969 whole entry): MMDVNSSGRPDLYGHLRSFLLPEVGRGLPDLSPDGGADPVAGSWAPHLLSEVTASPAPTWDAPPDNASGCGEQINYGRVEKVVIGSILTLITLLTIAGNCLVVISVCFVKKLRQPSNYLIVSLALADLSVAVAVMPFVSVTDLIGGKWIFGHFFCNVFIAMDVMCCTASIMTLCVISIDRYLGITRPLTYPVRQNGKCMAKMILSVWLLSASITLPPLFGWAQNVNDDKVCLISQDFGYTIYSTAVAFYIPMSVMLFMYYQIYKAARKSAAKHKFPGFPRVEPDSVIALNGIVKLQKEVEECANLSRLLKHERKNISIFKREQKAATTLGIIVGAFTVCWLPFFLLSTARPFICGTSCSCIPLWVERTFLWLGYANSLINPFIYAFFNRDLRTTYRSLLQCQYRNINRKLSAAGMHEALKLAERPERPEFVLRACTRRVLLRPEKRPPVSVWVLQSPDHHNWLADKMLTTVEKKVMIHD
Chain of 5-HT6 (P50406 whole entry): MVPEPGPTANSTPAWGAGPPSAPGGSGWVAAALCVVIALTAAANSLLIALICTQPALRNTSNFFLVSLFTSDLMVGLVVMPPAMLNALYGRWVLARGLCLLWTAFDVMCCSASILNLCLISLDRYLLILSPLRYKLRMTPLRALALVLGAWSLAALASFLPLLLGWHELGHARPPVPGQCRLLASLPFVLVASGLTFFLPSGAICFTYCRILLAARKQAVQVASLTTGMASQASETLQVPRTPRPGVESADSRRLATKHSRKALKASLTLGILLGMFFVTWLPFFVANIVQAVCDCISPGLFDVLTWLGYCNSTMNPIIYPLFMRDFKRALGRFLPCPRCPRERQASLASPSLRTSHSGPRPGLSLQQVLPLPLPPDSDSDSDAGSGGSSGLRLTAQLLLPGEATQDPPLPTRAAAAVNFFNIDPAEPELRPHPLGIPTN
Chain of 5-ht1e (P28566 whole entry): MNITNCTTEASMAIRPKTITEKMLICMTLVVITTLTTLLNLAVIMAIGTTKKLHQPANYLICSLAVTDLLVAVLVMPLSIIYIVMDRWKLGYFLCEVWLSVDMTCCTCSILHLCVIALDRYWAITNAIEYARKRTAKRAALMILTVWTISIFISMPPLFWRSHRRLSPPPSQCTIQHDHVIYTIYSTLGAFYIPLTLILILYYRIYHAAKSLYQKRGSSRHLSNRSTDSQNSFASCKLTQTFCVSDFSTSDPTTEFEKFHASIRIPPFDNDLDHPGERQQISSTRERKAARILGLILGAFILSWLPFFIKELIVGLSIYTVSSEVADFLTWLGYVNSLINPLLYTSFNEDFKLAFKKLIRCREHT
Chain of 5-ht5a (P47898 whole entry): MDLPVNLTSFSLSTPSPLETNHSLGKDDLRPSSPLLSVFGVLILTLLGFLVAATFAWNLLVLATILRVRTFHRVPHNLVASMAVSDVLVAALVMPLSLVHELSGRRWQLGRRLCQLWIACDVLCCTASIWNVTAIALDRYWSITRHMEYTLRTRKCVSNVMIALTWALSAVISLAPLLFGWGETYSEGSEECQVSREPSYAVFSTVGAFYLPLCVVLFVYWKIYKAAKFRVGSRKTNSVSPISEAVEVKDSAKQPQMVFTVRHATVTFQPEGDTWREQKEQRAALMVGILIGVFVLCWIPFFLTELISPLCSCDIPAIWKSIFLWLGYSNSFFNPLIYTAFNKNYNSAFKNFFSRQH

SMILES | Ki (5-HT1A; 5-HT1A affinity) | EC50 (r5-HT2A) | Emax (r5-HT2A) | Ki (5-HT2A receptor [1]) | Ki (human 5-HT2C receptor [2]) | Ki (5-HT7) | Ki (5-HT6) | EC50 (r5-HT2C; [5]) | Emax (r5-HT2C) | Ki (5-HT1D) | Ki (5-ht1e) | Emax (h5-HT2B) | EC50 (h5-HT2B; [6]) | Emax (h5-HT2C) | EC50 (h5-HT2C) | Ki (5-ht5a) | max counts (Male C57BL/6J mice; SC) | ED50 (Male C57BL/6J mice) | activity in the HTR assay (active / inactive) (Male C57BL/6J mice; SC) | magnitude of peak effect × vehicle (Male C57BL/6J mice; SC, mouse head twitch) | other results
COc1cc(CCNCc2ccccc2Br)c(OC)cc1I [Compound 4c, N-(2-Bromobenzyl)-2-(4-iodo-2,5-dimethoxyphenyl)ethan-1-amine] | 1160 nM | 36 nM | 65.6 ± 1.6% | 0.38 nM | 8.71 nM | 2550 nM | 257 nM | 105 nM | 104 ± 1% | 423 nM | > 10 µM | 83 ± 3% | 134 nM | 87 ± 5% | 57.6 nM | 2290 nM | 23.2 | 2.31 mg/kg | active | 3.0 × vehicle | EC50 (h5-HT2B; h5-HT2B pEC50 ± SEM, Ca2+ mobilization, NA = not active, Emax ≤ 15%): 151 nM; maximally effective dose (Male C57BL/6J mice; SC, mouse head twitch): 10 mg/kg; Ki (5-HT1B): > 10 µM; EC50 (h5-HT2A): 42 nM; Emax (h5-HT2A): 88 ± 1.5%; Ki (5-HT2A receptor [3]): 2.34 nM; Ki (human 5-HT2C receptor [4]): 1.02 nM; Ki (5-HT2B): 20 nM; Ki (5-HT3): > 10 µM
COc1cccc(CNCCc2c[nH]c3ccc(OC)cc23)c1 [Compound 5b, N-(3-Methoxybenzyl)-2-(5-methoxy-1H-indol-3-yl)ethan-1-amine] | 335 nM | 34 nM | 52.2 ± 0.9% | 1.05 nM | 38 nM | 406 nM | 25 nM | 168 nM | 102 ± 2% | 334 nM | > 10 µM | ≤ 15% | 949 nM | 65 ± 5% | 178 nM | 1260 nM | 9.2 | 3.28 mg/kg | active | 3.7 × vehicle | Ki (5-HT1A; 5-HT1A pKi ± SEM): 331 nM; EC50 (r5-HT2C; r5-HT2C pEC50 ± SEM, Ca2+ mobilization): 166 nM; active doses (Male C57BL/6J mice; SC, mouse head twitch): 10 mg/kg; maximally effective dose (Male C57BL/6J mice; SC, mouse head twitch): 10 mg/kg; HTR at 30 mg/kg (Male C57BL/6J mice; biphasic bell-shaped dose–response, 30 mg/kg SC): inactive; Ki (5-HT1B): > 10 µM; EC50 (h5-HT2A): 6.2 nM; Emax (h5-HT2A): 70 ± 1%; Ki (5-HT2A receptor [3]): 7.76 nM; Ki (human 5-HT2C receptor [4]): 5.89 nM; Ki (5-HT2B): 2.5 nM; Ki (5-HT3): > 10 µM
